Values of other authors as cited in patent US20070081962A1, “Novel delivery of immune response modifiers for removal of chronic tattoos” (priority 2005, published 2007).

Tested on: freshly applied tattoos
Settings: guinea pigs tattooed with commonly used tattoo inks; topical 5% cream, initiated within six hours of the tattoo application and continued for seven days

CC(C)Cn1cnc2c(N)nc3ccccc3c21 [irmiquimod, 1-(2-methylpropyl)-1H-imidazo[4,5-c]quinolin-4-amine]
removal of freshly applied tattoos: effective for removing freshly applied tattoos
